Measurements: patent publication US20240390464A1, “Treatment of Adults With Overweight or Obesity With or Without Weight-Related Comorbidities” (Carmot Therapeutics Inc., priority 2023, published 2024)
Numbered stars: 1 amine (or outer) side, 2 acyl side, 3 side chain; on linkers, the order of the positions; unused ones are H or OH. Square brackets hold non-standard residues; d marks the D form. Side chains are listed from the residue outwards. Peptide text beside a SMILES is read from it. * marks the point of attachment. Isobutyryl(2-(3-CN-5-F-Ph)) = CC(C)(C(=O)*)c1cc(F)cc(C#N)c1; C20 diacid = O=C(O)CCCCCCCCCCCCCCCCCCC(=O)*; γGlu = O=C(O)[C@H](CCC(=O)[*:2])N[*:1]; AEEA = NCCOCCOCC(=O)O; Aib = CC(C)(N)C(=O)O; βAla = NCCC(=O)O

Test: Phase 1 SAD Cohorts 1-5: safety and tolerability (adverse events)
Assay type: in vivo, human
Details: for AE: Abdominal bloating / AE: Abdominal cramp / AE: Abdominal cramp with loose bowel / AE: Abdominal pain / AE: Abnormal LFTs / AE: Constipation / AE: Diarrhea / AE: Dyspepsia / AE: Dysphasia / AE: Early satiety / AE: Emesis / AE: Exacerbated GERD / AE: Fatigue / AE: Headache / AE: Indigestion / AE: Lethargy / AE: Loose bowel motion / AE: Loose stools / AE: Loss of Appetite / AE: Microscopic hematuria / AE: Nausea / AE: Reduced appetite / AE: Reduced bowel motion / AE: Reflux / AE: Throat discomfort / AE: Vomiting / Life-threatening TEAE / Moderate TEAEs / Related TEAEs / Serious TEAEs / Severe TEAEs / TEAE leading to death / TEAEs: N = 8, blinded
Source text: This Example outlines the protocol for a Phase 1 randomized, double-blind, placebo-controlled study to evaluate the safety, tolerability, pharmacokinetics, and pharmacodynamics of CT-388 in otherwise healthy overweight and obese adult participants and in obese patients with type 2 diabetes mellitus.
The primary objective of this study is to determine the safety and tolerability of CT-388 in otherwise healthy overweight and obese adult participants when administered as a single dose of 0.5, 2.0, 5.0, 6.0, or 7.5 mg.
Safety and tolerability will be assessed by monitoring adverse events (AE) including local injection-site reactions, measuring vital signs and ECGs, and performing clinical laboratory blood and urine analyses.
• Cohort 1: One dose containing 0.5 mg of CT-388 or matched placebo administered subcutaneously in the abdomen • Cohort 2: One dose containing 2.0 mg of CT-388 or matched placebo administered subcutaneously in the abdomen • Cohort 3: One dose containing 5.0 mg of CT-388 or matched placebo administered subcutaneously in the abdomen • Cohort 4: One dose containing 7.5 mg of CT-388 or matched placebo administered subcutaneously in the abdomen • Cohort 5: One dose containing 6.0 mg of CT-388 or matched placebo administered subcutaneously in the abdomen
A Phase 1, randomized, placebo-controlled, double-blind study was conducted where single ascending doses (SAD; n=40; 0.5-7.5 mg) and multiple ascending doses (MAD; n=24; 5-12 mg via titration in 3 cohorts) were administered as described in Example 1 to overweight/obese adults.

[1] = Cohort 1, 0.5 mg/Placebo single SC dose
[2] = Cohort 2, 2 mg/Placebo single SC dose
[3] = Cohort 3, 5 mg/Placebo single SC dose
[4] = Cohort 4, 7.5 mg/Placebo single SC dose
[5] = Cohort 5, 6 mg/Placebo single SC dose

## CC[C@H](C)[C@H](NC(=O)[C@H](CC(C)C)NC(=O)[C@H](Cc1c[nH]c2ccccc12)NC(=O)[C@H](CCC(N)=O)NC(=O)[C@@H](NC(=O)[C@H](Cc1ccccc1)NC(=O)[C@H](C)NC(=O)[C@H](CCCCNC(=O)COCCOCCNC(=O)COCCOCCNC(=O)CC[C@H](NC(=O)CCCCCCCCCCCCCCCCCCC(=O)O)C(=O)O)NC(=O)[C@H](CCC(N)=O)NC(=O)[C@H](C)NC(=O)[C@@H](NC(=O)[C@H](CCCCN)NC(=O)[C@H](CC(=O)O)NC(=O)[C@H](CC(C)C)NC(=O)C(C)(C)NC(=O)[C@@H](NC(=O)[C@H](CO)NC(=O)[C@H](Cc1ccc(O)cc1)NC(=O)[C@H](CC(=O)O)NC(=O)[C@H](CO)NC(=O)[C@@H](NC(=O)[C@H](Cc1ccccc1)NC(=O)[C@@H](NC(=O)CNC(=O)[C@H](CCC(=O)O)NC(=O)CCNC(=O)C(C)(C)c1cc(F)cc(C#N)c1)[C@@H](C)O)[C@@H](C)O)[C@@H](C)CC)[C@@H](C)CC)C(C)C)C(=O)N[C@@H](C)C(=O)NCC(=O)NCC(=O)N1CCC[C@H]1C(=O)N[C@@H](CO)C(=O)N[C@@H](CO)C(=O)NCC(=O)N[C@@H](C)C(=O)N1CCC[C@H]1C(=O)N1CCC[C@H]1C(=O)N1CCC[C@H]1C(=O)N[C@@H](CO)C(N)=O [CT-388] ({Isobutyryl(2-(3-CN-5-F-Ph))-βAla}-EGTFTSDYSI[Aib]LDKIAQK([AEEA-AEEA-γGlu-C20 diacid])AFVQWLIAGGPSSGAPPPS-NH2)
[1]
  AE: Abdominal bloating: 0
  AE: Abdominal cramp: 0
  AE: Abdominal cramp with loose bowel: 0
  AE: Abdominal pain: 0
  AE: Abnormal LFTs: 0
  AE: Constipation: 0
  AE: Diarrhea: 0
  AE: Dyspepsia: 0
  AE: Dysphasia: 0
  AE: Early satiety: 0
  AE: Emesis: 0
  AE: Exacerbated GERD: 0
  AE: Fatigue: 0
  AE: Headache: 0
  AE: Indigestion: 0
  AE: Lethargy: 0
  AE: Loose bowel motion: 0
  AE: Loose stools: 0
  AE: Loss of Appetite: 0
  AE: Microscopic hematuria: 0
  AE: Nausea: 0
  AE: Reduced appetite: 0
  AE: Reduced bowel motion: 0
  AE: Reflux: 0
  AE: Throat discomfort: 0
  AE: Vomiting: 0
  Life-threatening TEAE: 0
  Moderate TEAEs: 0
  Related TEAEs: 0
  Serious TEAEs: 0
  Severe TEAEs: 0
  TEAE leading to death: 0
  TEAEs: 8
[2]
  AE: Abdominal bloating: 0
  AE: Abdominal cramp: 0
  AE: Abdominal cramp with loose bowel: 2 (25.0%)
  AE: Abdominal pain: 0
  AE: Abnormal LFTs: 0
  AE: Constipation: 2 (25.0%)
  AE: Diarrhea: 0
  AE: Dyspepsia: 0
  AE: Dysphasia: 0
  AE: Early satiety: 1 (12.5%)
  AE: Emesis: 0
  AE: Exacerbated GERD: 0
  AE: Fatigue: 2 (25.0%)
  AE: Headache: 1 (12.5%)
  AE: Indigestion: 0
  AE: Lethargy: 1 (12.5%)
  AE: Loose bowel motion: 0
  AE: Loose stools: 0
  AE: Loss of Appetite: 2 (25.0%)
  AE: Microscopic hematuria: 0
  AE: Nausea: 0
  AE: Reduced appetite: 0
  AE: Reduced bowel motion: 0
  AE: Reflux: 0
  AE: Throat discomfort: 0
  AE: Vomiting: 0
  Life-threatening TEAE: 0
  Moderate TEAEs: 1
  Related TEAEs: 6
  Serious TEAEs: 0
  Severe TEAEs: 0
  TEAE leading to death: 0
  TEAEs: 8
[3]
  AE: Abdominal bloating: 0
  AE: Abdominal cramp: 0
  AE: Abdominal cramp with loose bowel: 0
  AE: Abdominal pain: 0
  AE: Abnormal LFTs: 0
  AE: Constipation: 0
  AE: Diarrhea: 0
  AE: Dyspepsia: 1 (12.5%)
  AE: Dysphasia: 1 (12.5%)
  AE: Early satiety: 0
  AE: Emesis: 2 (25.0%)
  AE: Exacerbated GERD: 0
  AE: Fatigue: 0
  AE: Headache: 0
  AE: Indigestion: 1 (12.5%)
  AE: Lethargy: 0
  AE: Loose bowel motion: 0
  AE: Loose stools: 0
  AE: Loss of Appetite: 1 (12.5%)
  AE: Microscopic hematuria: 1 (12.5%)
  AE: Nausea: 0
  AE: Reduced appetite: 0
  AE: Reduced bowel motion: 0
  AE: Reflux: 0
  AE: Throat discomfort: 0
  AE: Vomiting: 0
  Life-threatening TEAE: 0
  Moderate TEAEs: 0
  Related TEAEs: 4
  Serious TEAEs: 0
  Severe TEAEs: 0
  TEAE leading to death: 0
  TEAEs: 6
[4]
  AE: Abdominal bloating: 1 (12.5%)
  AE: Abdominal cramp: 1 (12.5%)
  AE: Abdominal cramp with loose bowel: 0
  AE: Abdominal pain: 0
  AE: Abnormal LFTs: 1 (12.5%)
  AE: Constipation: 0
  AE: Diarrhea: 2 (25.0%)
  AE: Dyspepsia: 0
  AE: Dysphasia: 0
  AE: Early satiety: 0
  AE: Emesis: 0
  AE: Exacerbated GERD: 1 (12.5%)
  AE: Fatigue: 0
  AE: Headache: 2 (25.0%)
  AE: Indigestion: 0
  AE: Lethargy: 0
  AE: Loose bowel motion: 0
  AE: Loose stools: 1 (12.5%)
  AE: Loss of Appetite: 1 (12.5%)
  AE: Microscopic hematuria: 0
  AE: Nausea: 6 (75.0%)
  AE: Reduced appetite: 2 (25.0%)
  AE: Reduced bowel motion: 1 (12.5%)
  AE: Reflux: 2 (25.0%)
  AE: Throat discomfort: 1 (12.5%)
  AE: Vomiting: 3 (37.5%)
  Life-threatening TEAE: 0
  Moderate TEAEs: 5
  Related TEAEs: 7
  Serious TEAEs: 1
  Severe TEAEs: 1
  TEAE leading to death: 0
  TEAEs: 8
[5]
  AE: Abdominal bloating: 0
  AE: Abdominal cramp: 0
  AE: Abdominal cramp with loose bowel: 0
  AE: Abdominal pain: 1 (12.5%)
  AE: Abnormal LFTs: 0
  AE: Constipation: 1 (12.5%)
  AE: Diarrhea: 0
  AE: Dyspepsia: 0
  AE: Dysphasia: 0
  AE: Early satiety: 0
  AE: Emesis: 0
  AE: Exacerbated GERD: 0
  AE: Fatigue: 0
  AE: Headache: 1 (12.5%)
  AE: Indigestion: 0
  AE: Lethargy: 0
  AE: Loose bowel motion: 1 (12.5%)
  AE: Loose stools: 0
  AE: Loss of Appetite: 1 (12.5%)
  AE: Microscopic hematuria: 0
  AE: Nausea: 2 (25.0%)
  AE: Reduced appetite: 1 (12.5%)
  AE: Reduced bowel motion: 0
  AE: Reflux: 0
  AE: Throat discomfort: 0
  AE: Vomiting: 2 (25.0%)
  Life-threatening TEAE: 0
  Moderate TEAEs: 2
  Related TEAEs: 4
  Serious TEAEs: 1
  Severe TEAEs: 1
  TEAE leading to death: 0
  TEAEs: 6
SAD Cohorts 1-5, single SC dose 0.5-7.5 mg, preliminary and blinded data
  safety and tolerability: generally well-tolerated
